Source: article PMC8303886, “Polyphenylglyoxamide-Based Amphiphilic Small Molecular Peptidomimetics as Antibacterial Agents with Anti-Biofilm Activity” (International Journal of Molecular Sciences, 2021)
Where “and” joins values, the source holds several entries; their conditions need not be identical. Identical values can stand only once. Like-named read-outs stand apart in the source and are kept apart here.

Columns and labels:
S. aureus (SA38) = test: Minimum inhibitory concentration (MIC) assay against S. aureus; type: cell-based, Staphylococcus aureus; details: Staphylococcus aureus
E. coli (K12) = test: Minimum inhibitory concentration (MIC) assay against E. coli; type: cell-based; details: Escherichia coli
P. aeruginosa (PAO1) = test: Minimum inhibitory concentration (MIC) assay against P. aeruginosa; type: cell-based; details: Pseudomonas aeruginosa
[1] = tested on: pre-established S. aureus biofilms; test: Disruption of pre-established S. aureus biofilms (crystal violet assay); type: cell-based, Staphylococcus aureus
Procedure: As bacterial biofilms are one of the major challenges in treating bacterial infection, the ability of the synthesised peptidomimetics to disrupt pre-established biofilms was investigated.
(§1) Bacterial cultures (S. aureus and E. coli) were cultured in MHB at 37 °C with shaking at 120 rpm for 24 h. The resulting bacterial culture was washed twice with MHB with centrifugation after each wash. The bacterial solution was then diluted with fresh MHB to a turbidity of OD660 = 0.1 in MHB (equivalent to 10^8 colony forming unit (CFU)/mL of bacteria), followed by diluting to 10^6 CFU/mL in MHB. A total of 200 µL of the bacterial solution was dispensed to wells in a flat-bottom 96-well plate (Costar). The biofilm was then grown in the plate at 37 °C for 24 h. After incubation, loosely bound cells were washed away with 1× phosphate-buffered saline (PBS, pH 7.4). The biofilms were then supplemented with different concentrations of peptidomimetics dissolved in DMSO and incubated at 37 °C with shaking at 120 rpm for a further 24 h. Biofilms adhered on the plate substratum were quantified, using crystal violet staining as described previously. The experiment was performed in triplicate.

[2] = tested on: S. aureus biofilm formation; test: Inhibition of S. aureus biofilm formation (crystal violet staining); type: cell-based, Staphylococcus aureus
Procedure: In this assay, S. aureus was incubated in the presence of different concentrations of the tested peptidomimetics under a static condition. After overnight incubation, planktonic bacteria were removed, and the remaining biofilms were quantified, using crystal violet staining.
S. aureus was cultured in Muller Hinton broth (MHB; Oxoid) at 37 °C with shaking at 120 rpm for 24 h. The resulting bacterial culture was washed twice with MHB with centrifugation after each wash. The bacterial solution was then diluted with fresh MHB to a turbidity of OD660 = 0.1 in MHB (equivalent to 10^8 colony forming unit (CFU)/mL of bacteria), followed by diluting to 10^6 CFU/mL in MHB. A total of 100 µL of the bacterial solution was added to wells of a 96-well plate (Costar; Sigma-Aldrich, St. Louis, MO, USA) containing 100 µL serially diluted peptidomimetics. After incubation at 37 °C for 24 h, loosely bound cells were washed away with 1× phosphate-buffered saline (PBS, pH 7.4). Biofilms adhered on the plate substratum were quantified, using crystal violet staining as described previously. Untreated bacteria were used as a negative control, where the percentage of biofilm mass reflected 100% biofilm growth. The experiment was performed in triplicate.

[3] = tested on: S. aureus cytoplasmic membrane; test: Cytoplasmic membrane permeability assay (diSC3-5 dye release); type: cell-based, Staphylococcus aureus; details: 1× and 2× MIC, read up to 15 min
From the text: This dye readily partitions into and aggregates in bacterial cell membranes, quenching its own fluorescence. However, structural damage to the bacterial cell membrane causes a loss in the membrane potential, which results in the leakage of dye from the bacterial cell membrane into the medium and an increase in fluorescence intensity. By detecting changes in fluorescence intensity, the integrity of the bacterial cytoplasmic membrane can be monitored.
Membrane potential sensitive dye diSC3–5 (3,3′-dipropylthiadicarbocyanine iodide), which penetrates inside bacterial cells depending on the membrane potential gradient of the cytoplasmic membrane, was used to determine the bacterial cytoplasmic membrane permeability following the procedure previously described with slight modification. Bacteria (S. aureus) were incubated in MHB with shaking at 37 °C for 16 h. After incubation, the bacteria were washed with 5 mM HEPES, supplemented with 20 mM glucose at pH 7.2 and diluted in the same buffer to an OD600 0.05–0.06 (equivalent to a final concentration of 10^7 CFU/mL bacteria). The diSC3–5 dye was added at 4 μM to the bacterial suspension. […] Fluorescence due to the release of dye was measured with a FLUOstar Omega (BMG Labtech) microplate reader at 5 min intervals at an excitation wavelength of 621 nm and an emission wavelength of 670 nm.

[4] = tested on: MRC-5 normal human lung fibroblasts; test: MTT cytotoxicity assay; type: cell-based; details: Homo sapiens, MRC5, 72 h, 72 h drug incubation, read-out: IC50 against MRC-5 normal human lung fibroblasts
Procedure: The IC50 values of the tested peptidomimetics were determined from a dose-response curve. […] The therapeutic indices for each tested peptidomimetic against Gram-positive S. aureus and Gram-negative E. coli were calculated by dividing the IC50 value against human cells by the corresponding MIC value (Table 2).
The toxicity of the peptidomimetics against normal human lung fibroblasts MRC-5 cells was measured, using an MTT (3-(4,5-dimethylthiazol-2-yl)-2,5-diphenyltetrazolium bromide) (Sigma Aldrich, St. Louis, MO, USA) colorimetric assay. The cells were cultured in minimal essential medium (MEM, Invitrogen) containing 10% foetal bovine serum (FBS). The cells were maintained at 37 °C in 5% CO2 as an adherent monolayer and was passaged upon reaching confluence by standard cell culture techniques. MRC-5 cells were seeded at 5000 cells/well in 96-well plates to ensure full confluence (quiescence) and left overnight to adhere to the plate wells. The adherent cells were treated with 1–500 μM of compounds by dissolving in DMSO and serially diluting with media. TY-01 was used as the positive control. The final concentration of DMSO was 0.5% (v/v). After the 72 h drug incubation, […] stock MTT solution (5 mg/mL) was added, and the cells were incubated for another 3.5–4 h. The MTT solution containing media was carefully aspirated without displacing the purple crystals from the bottom, and […] acid-isopropanol was added to all wells and mixed slowly by shaking with an orbital shaker to dissolve the dark blue crystals. […] The determination of IC50 values was performed using GraphPad Prism 7 (GraphPad, San Diego, CA, USA). Each experiment was performed in triplicate and was repeated in three independent experiments.

Haemolysis assay = type: cell-based; details: washed human red blood cells
Procedure: A total of 20 mL of human blood collected in EDTA coated tubes was transferred into a 50 mL centrifuge tube and centrifuged at 500× g (700) for 5 min. The supernatant plasma was discarded and an equal volume of 1× PBS was added. The washing was repeated five times with cells mixed by inversion. The washed pallet was then resuspended in 1:10 with PBS to yield an RBC concentration of ~5 × 10^8 RBC/mL. The peptidomimetics were serially diluted with PBS, with final concentrations ranging from 8 to 500 µM. Milli-Q water and 1× PBS were used as positive and negative controls. The cells were then incubated at 37 °C for 3 h. Following incubation, the suspension was centrifuged at 1100× g for 5 min. The final optical density was measured at 540 nm. The percentage of haemolysis was calculated, using the following equation. % haemolysis=(absorbance of test sample−absorbance of diluent)/(absorbance of positive control−absorbance of diluent)×100%

[5] = tested on: pre-established E. coli biofilms; test: Disruption of pre-established E. coli biofilms (crystal violet assay); type: cell-based, Escherichia coli
Procedure: as §1

[6] = tested on: pre-established S. aureus biofilms; set-up: method as in PMID 27405275; details: 4× MIC; cited from earlier work
[7] = S. aureus SA38, read-out: MIC S. aureus
[8] = in trypticase soy broth (TSB), Mueller Hinton broth (MHB) or cationic adjusted MHB, read-out: MIC S. aureus in different growth media
[9] = highest concentration tested 250 μM
[10] = 4× MIC, 24 h treatment (32 μM for 17c)

Molecule | MIC (S. aureus (SA38); [7]) | MIC (S. aureus (SA38); [8]) | MIC (E. coli (K12)) | MIC (P. aeruginosa (PAO1)) | MIC (P. aeruginosa (PAO1); [9]) | disruption of pre-established S. aureus biofilms ([1]; 1× MIC, 24 h treatment) | inhibition of S. aureus biofilm formation ([2]; 0.5× MIC (sub-MIC)) | S. aureus cytoplasmic membrane disruption (increase in fluorescence intensity) [3] | IC50 [4] | hemolysis at 3 h, 32 µM (Haemolysis assay) | disruption of pre-established S. aureus biofilms [1, 10] | disruption of pre-established E. coli biofilms ([5]; 2× MIC, 24 h treatment (64 μM for 17c)) | inhibition of S. aureus biofilm formation ([2]; 2× MIC (16 μM for 17c)) | inhibition of S. aureus biofilm formation ([2]; 4× MIC) | disruption of pre-established E. coli biofilms ([5]; 1× and 2× MIC, 24 h treatment) | melting point | disruption of pre-established S. aureus biofilms [6]
CCCCCCCCS(=O)(=O)Nc1ccc(-c2ccc(-c3ccccc3)cc2)cc1C(=O)C(=O)NCCC[N+](C)(C)C.[I-] [Compound 16d, N,N,N-Trimethyl-3-(2-(4-(octylsulfonamido)-[1,1′:4′,1″-terphenyl]-3-yl)-2-oxoacetamido)propan-1-aminium iodide] | 4 µM and 2.9 µg/mL | 4 µM and 2.9 µg/mL | > 250 µM and > 180 µg/mL | > 180 mg/L | > 250 µM | no antibiofilm activity | 35% | least active compound | 53.7 µM and 38.6 µg/mL | 11% |  |  |  |  |  |  | 
CCCCCCCCCCCCS(=O)(=O)Nc1ccc(-c2ccccc2)cc1C(=O)C(=O)NCCC[N+](C)(C)C.[I-] [Compound 17c, 3-(2-(4-(Dodecylsulfonamido)-[1,1′-biphenyl]-3-yl)-2-oxoacetamido)-N,N,N-trimethylpropan-1-aminium iodide] | 8 µM and 5.6 µg/mL | 8 µM and 5.6 µg/mL | 32 µM | > 175 mg/L | > 250 µM | 20–36% | 56% |  | 57.5 µM and 40.2 µg/mL | 16% | 44% | 28% | 70% | 65% |  |  | 
CCCCCCCCCCCCS(=O)(=O)Nc1ccccc1C(=O)C(=O)NCCCNC(=N)N.Cl [Compound 34a, 2-(2-(Dodecylsulfonamido)phenyl)-N-(3-guanidinopropyl)-2-oxoacetamide hydrochloride] | 8 µM and 4.3 µg/mL |  | 16 µM and 8.5 µg/mL | > 133 mg/L | > 250 µM | 20–36% |  | most active compound at 2× MIC | 27.2 µM and 14.5 µg/mL |  | 42% |  |  |  | unable to disrupt any pre-established E. coli biofilms | 70 to 72.8 °C | 
LL-37: cathelicidin (LL-37), antimicrobial peptide in phase IIb clinical trials for the treatment of chronic leg ulcers (LLGDFFRKSKEKIGKEFKRIVQRIKDFLRNLVPRTES; Antibacterial peptide LL-37; UniProt P49913 134-170, looked up) |  |  |  |  |  |  |  |  |  |  |  |  |  |  |  |  | about 40%
